“Also recorded” adds a separate entry of the source. Where two headings read alike, the source gives them in different places.
Molecular target: T1, hKv1.5 expressed in Chinese Hamster Ovary (CHO) cells (Homo sapiens, UniProt P22460)
T1 construct: expressed in transfected cells; host or cells: CHO-K1 cells (CHOKI in source), pcDNAI/Neo plasmid, G418-selected clones
Assay: Voltage clamp measurement of hKv1.5 block (rested state, use-dependent, rate-dependent) in CHO cells
Type: cell-based
Settings: for Rate-Dpdnt Ratio: 3 Hz vs 1 Hz, last pulse, <1 = rate-dependent; for Use-Dpdnt Ratio: 10th vs 1st pulse @ 1 Hz, <1 = use-dependent; for selective blockade of hKv1.5 (in words): relative to other cardiac K+ channels; for rate-dependent ratio for block of hKv1.5 (bound) / use-dependent ratio for block of hKv1.5 (bound): summary of Table 1
Experimental: A. Measurement of Kv1.5 in CHO cells
Expression of Kv1.5 in CHO Cells
A cDNA encoding Kv1.5, isolated from a human fetal heart library, was subcloned into pcDNAI/Neo (Invitrogen) as a Hind III--Xba I fragment.
CHOKI cells were plated at 2.7×10^4 cells/60 mm dish and incubated at 37° C., in a 5% CO2 environment for three days. Cells were then washed twice and covered with 3 ml of OptiMEM medium (Gibco). Plasmid/DOTAP solution (consisting of […] of Kv1.5 in pcDNAI/Neo and […] DOTAP transfection reagent (Boehringer Mannheim) in 1 ml of OptiMEM) was added dropwise to each plate while swirling. Plates were incubated overnight and the media then changed to 5 mls of F12 (Gibco) supplemented with 10% FBS (Sigma), 1,000 U/ml penicillin […] streptomycin (Gibco), and 2 mM glutamine (Gibco). After two more days, the cells were trypsinized and replated on 100 mm dishes in supplemented F12 media including 1 mg/ml G418 (Gibco). The medium was changed daily until nontransfected cells were killed. Cell lines were grown from individual clones and tested for expression of Kv1.5 using both the ^86 RB efflux assay and voltage clamp protocols. […] These cells were maintained in culture and on each experimental day were freshly isolated by mild trypsinization.
The patch-clamp technique was used to record ionic currents in the whole-cell configuration. Patch pipettes were obtained using a two stage puller from square bore (1.0 mm o.d.) borosillicate capillary tubing. Pipettes were filled with the following solution (in mM/L): 110 K-Gluconate or K-Aspartate, 20 KCl, 5 MgATP, 5 EGTA, 5-10 HEPES, pH 7.2. The electrodes had tip resistances ranging from 3 to 10 Mohm when filled with this solution. Following seal formation, the membrane was ruptured by gentle suction to establish the whole-cell configuration, and negative pressure was maintained on the pipette using a 1 ml gas-tight syringe attached via air tight tubing to the suction port of the microelectrode holder. […] Currents were sampled at 5 kHz using an Axopatch 200 A amplifier (Axon Instruments) or a List EPC-7 clamp amplifier (List Electronic) and were low pass filtered at 1 kHz.
Measurements of Kv1.5 Expressed Currents:
Kv1.5 currents were elicited by 150 ms depolarizing test pulses to +40 mV from a holding potential of -80 mV. The effects of test agents were assessed at steady-state. Data was analyzed as % block from control current amplitude. The amplitude of Kv1.5 was measured as the amplitude of the time-dependent net outward current at the end of the test pulse, relative to the holding current level. […] All experiments were performed at room temperature (22-24° C.).
C. Measurement of Use-Dependent and Rate-Dependent Block.
Pulses were applied in 10 second long trains delivered after 30 second rest intervals at frequencies of 1 Hz (10 pulses) or 3 Hz (30 pulses). Percent block of the current is defined as the % decrease in the current amplitude produced by an agent during a given pulse relative to the control current amplitude for that pulse. Rested-state block is the block of the current during the first pulse in a train following the 30 sec rest period. Use-dependent block is block that occurs to a progessively greater extent with each successive depolarization in a train or sequence of pulses or depolarizations delivered at a given rate or frequency. Thus, during a train of 10 depolarizations at frequency of 1 Hz, use-dependent block is assessed as the ratio of the amount of block for the 10th pulse relative to block for the 1st pulse (rested state block) of the train. Rate-dependent block is block that occurs to a greater extent or preferentially at faster rates of depolarization or heart rates. Thus, rate-dependent block is assessed as the ratio of the amount of block of the current during the last pulse of the 10 sec train at 3 Hz vs. 1 Hz.

[1] = 30 nM, 1st pulse @ 1 Hz, +40 mV from -80 mV, read-out: Average % Block, Rested State, 1st pulse
[2] = 30 nM, 10th pulse @ 1 Hz, read-out: Average % Block, Use-Dpdnt, 10th pulse
[3] = 30 nM, 30th pulse @ 3 Hz, read-out: Average % Block, Rate-Dpdnt, 30th pulse
[4] = 100 nM, 1st pulse @ 1 Hz, read-out: Average % Block, Rested State, 1st pulse
[5] = 100 nM, 10th pulse @ 1 Hz, read-out: Average % Block, Use-Dpdnt, 10th pulse
[6] = 100 nM, 30th pulse @ 3 Hz, read-out: Average % Block, Rate-Dpdnt, 30th pulse
[7] = 300 nM, 1st pulse @ 1 Hz, read-out: Average % Block, Rested State, 1st pulse
[8] = 300 nM, 10th pulse @ 1 Hz, read-out: Average % Block, Use-Dpdnt, 10th pulse

T1 sequence (P22460 whole entry): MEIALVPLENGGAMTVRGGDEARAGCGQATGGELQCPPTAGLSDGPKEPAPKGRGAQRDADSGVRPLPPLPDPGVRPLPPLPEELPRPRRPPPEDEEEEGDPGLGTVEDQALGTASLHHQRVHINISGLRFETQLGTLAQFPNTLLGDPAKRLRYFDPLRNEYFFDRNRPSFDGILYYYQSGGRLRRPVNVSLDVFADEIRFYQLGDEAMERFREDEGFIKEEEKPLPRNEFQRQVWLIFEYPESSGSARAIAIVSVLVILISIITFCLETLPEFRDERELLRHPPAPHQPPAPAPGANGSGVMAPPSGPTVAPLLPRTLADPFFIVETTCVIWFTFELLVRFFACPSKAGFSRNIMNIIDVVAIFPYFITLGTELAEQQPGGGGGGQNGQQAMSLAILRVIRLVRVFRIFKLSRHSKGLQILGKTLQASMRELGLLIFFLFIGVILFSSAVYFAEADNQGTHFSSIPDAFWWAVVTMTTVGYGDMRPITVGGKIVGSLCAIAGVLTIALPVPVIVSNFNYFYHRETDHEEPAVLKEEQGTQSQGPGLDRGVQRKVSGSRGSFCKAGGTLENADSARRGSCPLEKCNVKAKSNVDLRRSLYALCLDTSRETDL

| Structure (SMILES) | rate-dependent block of hKv1.5 (in words) | use-dependent block of hKv1.5 (in words) | inhibition at 0.03 µM [1] | inhibition at 0.03 µM [2] | inhibition at 0.03 µM [3] | inhibition at 0.1 µM [4] | Rate-Dpdnt Ratio (100 nM) | inhibition at 0.1 µM [5] | Use-Dpdnt Ratio (100 nM) | inhibition at 0.1 µM [6] | selective blockade of hKv1.5 (in words) | rate-dependent ratio for block of hKv1.5 (bound) | use-dependent ratio for block of hKv1.5 (bound) | inhibition at 0.3 µM [7] | inhibition at 0.3 µM [8] | Use-Dpdnt Ratio (300 nM) | also measured |
| --- | --- | --- | --- | --- | --- | --- | --- | --- | --- | --- | --- | --- | --- | --- | --- | --- | --- |
| COc1ccc(-n2nc(Sc3ccc(Cl)cc3)c(C)c(C#N)c2=O)cc1 [C, 6-(4-Chlorophenylthio)-2-(4-methoxyphenyl)-5-methyl-3-oxo-2,3-dihydropyridazine-4-carbonitrile] | rate-dependent blockers | use-dependentblockade | 6.6% | 15.7% | 38% | 51% | 0.83 | 75.5% | 0.68 | 91.1% | selective blockade | < 1 | < 1 |  |  |  | Rate-Dpdnt Ratio (30 nM): 0.41; Use-Dpdnt Ratio (30 nM): 0.42 |
| CC1CCC(C(C)C)C(P(=O)(c2ccccc2)c2ccccc2)C1 (stereo not drawn) [A, (2-Isopropyl-5-methylcyclohexyl)diphenylphosphine oxide] | rate-dependent blockers; also recorded: strong rate-dependent profile | use-dependentblockade | 21.2% | 38.5% | 57.5% | 32.1% |  | 64.6% |  | 82.9% |  |  |  |  |  |  | use-dependent block of hKv1.5 (in words) (listed as (2-isopropyl-5-methylcyclohexyl) diphenyl-phosphine oxide): strong use-dependent profile |
| Cc1cc(C)c(CP(=O)(c2ccccc2)c2ccccc2)c(-c2ccc(F)c(C)c2)c1 [B, 2-(Diphenylphosphinylmethyl)-4'-fluoro-3,5,3'-trimethyl-biphenyl] | rate-dependent blockers | use-dependentblockade |  |  |  | 23.3% | 0.66 | 29.6% | 0.79 | 44.9% | selective blockade | < 1 | < 1 | 43.5% | 56.6% | 0.77 | Rate-Dpdnt Ratio (300 nM): 0.84; inhibition at 0.3 µM (300 nM, 30th pulse @ 3 Hz, read-out: Average % Block, Rate-Dpdnt, 30th pulse): 67.5% |
| COc1ccc(-n2nc(Sc3ccc(C)cc3)c(C)c(C#N)c2=O)cc1 [D] |  | use-dependentblockade |  |  |  | 31.1% |  | 34% | 0.91 |  | selective blockade |  | < 1 | 52% | 62.5% | 0.83 |  |
